This passage reports IC50 results from PubChem BioAssay AID504930 (The Scripps Research Institute Molecular Screening Center, 2011).

In the assay the test system is granule cell progenitor proliferation, radioactive thymidine incorporation. Nature of the assay: inhibition of GCP proliferation, late-stage follow-up, counter-screen for Wee1 degradation inhibitor project, cell-based, radioactive thymidine incorporation (AID 504930). (Counterscreens check selectivity or assay interference.)

Take `c1ccc2[nH]c(CNc3nc(N4CCOCC4)nc4c3ncn4-c3ccsc3)nc2c1`: the IC50 is 11.6 nM.
For `O=[N+]([O-])c1cccc2[nH]c(CNc3nc(N4CCOCC4)nc4c3ncn4-c3ccsc3)nc12`, the IC50 was 4.61 nM.

As a reminder, the IC50 is the midpoint of a concentration-inhibition curve.
